The source of these data is ChEMBL document CHEMBL4184110 (Bioorg Med Chem Lett, 2018).

Values after ≈ are worked out from the molar mass of the structure shown.

In data set [1] the target is T1, Peroxisome proliferator-activated receptor delta (Homo sapiens, UniProt Q03181).
T1 sequence (Q03181 whole entry): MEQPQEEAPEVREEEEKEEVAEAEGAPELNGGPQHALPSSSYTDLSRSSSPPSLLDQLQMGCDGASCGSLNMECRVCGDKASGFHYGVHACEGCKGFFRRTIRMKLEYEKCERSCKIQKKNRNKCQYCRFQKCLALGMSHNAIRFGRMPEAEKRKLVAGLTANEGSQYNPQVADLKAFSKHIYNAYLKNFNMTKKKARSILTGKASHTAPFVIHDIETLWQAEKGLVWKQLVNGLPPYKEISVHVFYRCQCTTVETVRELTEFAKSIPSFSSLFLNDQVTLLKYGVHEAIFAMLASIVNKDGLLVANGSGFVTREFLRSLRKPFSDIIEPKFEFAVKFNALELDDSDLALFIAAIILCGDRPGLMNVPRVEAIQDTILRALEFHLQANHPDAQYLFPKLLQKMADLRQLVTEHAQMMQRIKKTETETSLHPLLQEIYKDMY
In words: Antagonist activity at CMV-fused PPARdelta-LBD-GAL4-DBD (unknown origin) expressed in HEK293T cells assessed as inhibition of GW0742-induced receptor transactivation after 16 hrs by bright-Glo luciferase reporter gene assay. The data set is classed as cell-based. For orientation: A reporter such as luciferase makes a cellular process visible.

The nature of data set [2]: Aqueous solubility of the compound in DMSO at 500 uM by filter based assay. The data set is classed as physicochemical.
Data set [3] deals with T2, Vitamin D3 receptor (Homo sapiens, UniProt P11473).
T2 sequence (P11473 whole entry): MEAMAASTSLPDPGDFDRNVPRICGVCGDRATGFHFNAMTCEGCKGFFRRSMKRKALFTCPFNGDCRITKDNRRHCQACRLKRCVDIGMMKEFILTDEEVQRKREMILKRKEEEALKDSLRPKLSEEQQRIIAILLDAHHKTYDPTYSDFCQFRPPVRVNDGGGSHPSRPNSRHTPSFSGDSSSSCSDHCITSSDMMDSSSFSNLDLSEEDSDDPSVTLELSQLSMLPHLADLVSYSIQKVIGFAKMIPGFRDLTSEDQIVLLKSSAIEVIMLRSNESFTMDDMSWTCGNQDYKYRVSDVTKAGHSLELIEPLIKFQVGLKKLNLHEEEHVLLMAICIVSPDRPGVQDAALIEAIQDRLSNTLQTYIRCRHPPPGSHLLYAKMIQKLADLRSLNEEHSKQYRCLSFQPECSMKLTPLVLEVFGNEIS
The experiment in a line: Agonist activity at VDR-LBD (unknown origin) assessed as recruitment of alexa fluor 647-labeled SRC2-3 after 30 mins by fluorescence polarization assay. On the technique in general: Polarisation of emitted light reports the rotation of a fluorescent probe.

Data set [4] deals with T3, Peroxisome proliferator-activated receptor alpha (Homo sapiens, UniProt Q07869).
T3 sequence (Q07869 whole entry): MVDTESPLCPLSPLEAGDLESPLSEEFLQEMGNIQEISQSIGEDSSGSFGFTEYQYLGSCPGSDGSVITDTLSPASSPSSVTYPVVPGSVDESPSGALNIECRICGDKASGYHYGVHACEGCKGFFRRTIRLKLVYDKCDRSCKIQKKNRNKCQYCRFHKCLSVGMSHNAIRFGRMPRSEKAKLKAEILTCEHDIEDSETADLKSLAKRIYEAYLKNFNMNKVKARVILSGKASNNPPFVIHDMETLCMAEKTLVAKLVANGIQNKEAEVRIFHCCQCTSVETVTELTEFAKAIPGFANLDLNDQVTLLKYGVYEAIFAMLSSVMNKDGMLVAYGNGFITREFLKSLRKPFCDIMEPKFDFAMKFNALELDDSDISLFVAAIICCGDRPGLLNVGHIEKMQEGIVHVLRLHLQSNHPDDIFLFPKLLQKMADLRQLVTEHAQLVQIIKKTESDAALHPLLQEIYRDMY
In words: Antagonist activity at CMV-fused PPARalpha-LBD-GAL4-DBD (unknown origin) expressed in HEK293T cells assessed as inhibition of GW7647-induced receptor transactivation after 16 hrs by bright-Glo luciferase reporter gene assay. Format: cell-based.

Data set [5] deals with T2, Vitamin D3 receptor. In words: Antagonist activity at VDR-LBD (unknown origin) assessed as inhibition of LG190178-induced recruitment of alexa fluor 647-labeled SRC2-3 after 30 mins by fluorescence polarization assay.
In the next data set the target is T4, Estrogen receptor (Homo sapiens, UniProt P03372).
T4 sequence (P03372 whole entry): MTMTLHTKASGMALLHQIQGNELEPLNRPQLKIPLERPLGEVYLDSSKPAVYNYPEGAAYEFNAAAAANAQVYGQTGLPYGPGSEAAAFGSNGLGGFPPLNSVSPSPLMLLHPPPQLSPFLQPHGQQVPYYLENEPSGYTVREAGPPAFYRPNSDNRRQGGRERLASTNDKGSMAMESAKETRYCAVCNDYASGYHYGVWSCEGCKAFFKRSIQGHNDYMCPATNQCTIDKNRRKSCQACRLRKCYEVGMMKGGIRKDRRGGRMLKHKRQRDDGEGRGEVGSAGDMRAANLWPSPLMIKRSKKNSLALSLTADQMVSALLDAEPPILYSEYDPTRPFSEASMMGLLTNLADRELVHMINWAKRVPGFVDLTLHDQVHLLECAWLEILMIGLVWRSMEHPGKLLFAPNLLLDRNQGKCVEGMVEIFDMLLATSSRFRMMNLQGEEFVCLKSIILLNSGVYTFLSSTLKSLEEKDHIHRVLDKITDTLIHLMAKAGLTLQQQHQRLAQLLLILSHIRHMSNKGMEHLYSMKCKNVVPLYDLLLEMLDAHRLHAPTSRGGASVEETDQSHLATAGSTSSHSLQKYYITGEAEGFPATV
The experiment in a line: Antagonist activity at CMV-fused ERalpha-LBD-GAL4-DBD (unknown origin) expressed in HEK293T cells assessed as inhibition of estradiol-induced receptor transactivation after 16 hrs by bright-Glo luciferase reporter gene assay. Format: cell-based.

The test system of the next data set is HEK-293T. The experiment in a line: Cytotoxicity against HEK293T cells assessed as decrease in cell viability at 100 uM after 18 hrs by Cell Titer-Glo based luminescence assay relative to control. The following applies: human. On the technique in general: ATP-based viability assays read luminescence as a measure of living cells.
The target in data set [6] is T1, Peroxisome proliferator-activated receptor delta. The experiment in a line: Transactivation of CMV-fused PPARdelta-LBD-GAL4-DBD (unknown origin) expressed in HEK293T cells by luciferase reporter gene assay. Format: cell-based.

Regarding `COC(=O)c1cccc(OCc2oc(-c3ccccc3OC)nc2C)c1`, the IC50 in data set [1] was 10.9 µM; in data set [4], 6.6 µM; on Vitamin D3 receptor [5], “Not Active”; at Estrogen receptor it was 5.2 µM. This compound also showed a kinetic solubility at 500 µM in data set [2] of 44.1 µM (≈ 15.6 µg/mL). Also, the EC50 entry (at Vitamin D3 receptor [3]; in data set [6]) was “Not Active” each time. For the same compound, the Activity in the data set with HEK-293T turned out to be 39.5%.

Regarding `COC(=O)Cc1ccc(OCc2oc(-c3ccccc3OC)nc2C)cc1`, the half-inhibitory concentration (IC50) in data set [1] is 6.6 µM; in data set [4] it was 8 µM; on Vitamin D3 receptor [5], “Not Active”; at Estrogen receptor, 4.1 µM. The solubility (kinetic) at 500 µM in data set [2] came out at 61.6 µM (≈ 22.6 µg/mL). For the same compound, the EC50 entry (at Vitamin D3 receptor [3]; in data set [6]) was “Not Active” in each case. For the same compound, the Activity in the data set with HEK-293T is 31.2%.

Take `COC(=O)Cc1ccc(OCc2oc(-c3cccc(OC)c3)nc2C)cc1`: the IC50 in data set [1] was 11.3 µM; in data set [4], 1.9 µM; at Vitamin D3 receptor [5], “Not Active”; at Estrogen receptor, 1.7 µM. In addition, the kinetic solubility at 500 µM in data set [2] is 45.3 µM (≈ 16.6 µg/mL). For the same compound, the EC50 entry (at Vitamin D3 receptor [3]; in data set [6]) was “Not Active” each time. Further, the Activity with HEK-293T was found to be 63.4%.

Take `COC(=O)c1ccc(OCc2oc(-c3cccc(OC)c3)nc2C)cc1`: the IC50 in data set [1] was 10.9 µM; in data set [4], 3.5 µM; on Vitamin D3 receptor [5], “Not Active”; on Estrogen receptor, 4.7 µM. In data set [2], this compound displayed a solubility (kinetic) at 500 µM of 18.5 µM (≈ 6.54 µg/mL). Moreover, the EC50 result (on Vitamin D3 receptor [3]; in data set [6]) was “Not Active” each time. Moreover, the Activity with HEK-293T is 35.6%.

Usually IC50 stands for the concentration that inhibits the measured activity by half. The solubility (kinetic) is the concentration staying in solution when a stock, usually in DMSO, is diluted into the medium.
